Experiments:
Type in all cases: functional, cell-based
NCI-H2228 = assay: cells; settings: Homo sapiens;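 also: growth inhibition of human NCI-H2228 cells, read out by a cell viability assay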
Description: SANGER: Inhibition of human NCI-H2228 cell growth in a cell viability assay.

BEN = assay: cells; settings: Homo sapiens;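 also: growth inhibition of the BEN cell line, read out with a cell viability assay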
Description: SANGER: Inhibition of human BEN cell growth in a cell viability assay.

DBTRG-05MG = assay: cells; settings: Homo sapiens;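 also: cell viability assay measuring growth inhibition of human DBTRG-05MG cells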
Description: SANGER: Inhibition of human DBTRG-05MG cell growth in a cell viability assay.

UACC-893 = assay: cells; settings: Homo sapiens
Description: SANGER: Inhibition of human UACC-893 cell growth in a cell viability assay.

HCC1569 = assay: cells; settings: Homo sapiens;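 also: growth inhibition of human HCC1569 cells, read out with a cell viability assay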
Description: SANGER: Inhibition of human HCC1569 cell growth in a cell viability assay.

TE-15 = assay: cells; settings: Homo sapiens;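 also: cell viability readout of growth inhibition in TE-15 cells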
Description: SANGER: Inhibition of human TE-15 cell growth in a cell viability assay.

NCI-H2171 = assay: cells; settings: Homo sapiens;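 also: growth inhibition of human NCI-H2171 cells, read out by a cell viability assay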
Description: SANGER: Inhibition of human NCI-H2171 cell growth in a cell viability assay.

AGS = assay: cells; settings: Homo sapiens;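 also: growth inhibition of AGS cells, determined with a cell viability assay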
Description: SANGER: Inhibition of human AGS cell growth in a cell viability assay.

SW48 = assay: cells; settings: Homo sapiens;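 also: growth inhibition of SW48 cells, read out with a cell viability assay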
Description: SANGER: Inhibition of human SW48 cell growth in a cell viability assay.

NCI-H1703 = assay: cells; settings: Homo sapiens;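 also: growth inhibition of NCI-H1703 cells, read out via a cell viability assay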
Description: SANGER: Inhibition of human NCI-H1703 cell growth in a cell viability assay.

NCI-H2405 = assay: cells; settings: Homo sapiens;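 also: growth inhibition of the human cell line, read out with a cell viability assay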
Description: SANGER: Inhibition of human NCI-H2405 cell growth in a cell viability assay.

NCI-H1694 = assay: cells; settings: Homo sapiens;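 also: cell viability assay measuring inhibition of growth in human NCI-H1694 cells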
Description: SANGER: Inhibition of human NCI-H1694 cell growth in a cell viability assay.

SCC-25 = assay: cells; settings: Homo sapiens;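 also: growth inhibition of SCC-25 cells, measured with a cell viability assay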
Description: SANGER: Inhibition of human SCC-25 cell growth in a cell viability assay.

SK-MEL-30 = assay: cells; settings: Homo sapiens;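 also: growth inhibition of SK-MEL-30 cells, determined with a cell viability assay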
Description: SANGER: Inhibition of human SK-MEL-30 cell growth in a cell viability assay.

EGI-1 = assay: cells; settings: Homo sapiens;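 also: cell viability readout used to gauge growth inhibition of EGI-1 cells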
Description: SANGER: Inhibition of human EGI-1 cell growth in a cell viability assay.

NCI-H650 = assay: cells; settings: Homo sapiens;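 also: growth inhibition of NCI-H650 cells, read out by a viability assay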
Description: SANGER: Inhibition of human NCI-H650 cell growth in a cell viability assay.

SW1990 = assay: cells; settings: Homo sapiens
Description: SANGER: Inhibition of human SW1990 cell growth in a cell viability assay.

BC1 cell line = assay: SANGER: Inhibition of human BC-1 cell growth in a cell viability assay.
BOKU = assay: cells; settings: Homo sapiens;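 also: growth inhibition of the human BOKU cell line, read out by a cell viability assay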
Description: SANGER: Inhibition of human BOKU cell growth in a cell viability assay.

BCPAP = assay: cells; settings: Homo sapiens;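 also: growth inhibition of BCPAP cells, read out in a cell viability assay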
Description: SANGER: Inhibition of human BCPAP cell growth in a cell viability assay.

DoTc2-4510 = assay: cells; settings: Homo sapiens
NCI-H1522 = assay: cells; settings: Homo sapiens;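 also: growth inhibition of NCI-H1522 cells, read out with a cell viability assay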
Description: SANGER: Inhibition of human NCI-H1522 cell growth in a cell viability assay.

JIYOYE = assay: cells; settings: Homo sapiens
Description: SANGER: Inhibition of human JiyoyeP-2003 cell growth in a cell viability assay.

BL-41 = assay: cells; settings: Homo sapiens;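 also: growth inhibition of human BL-41 cells, read out with a cell viability assay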
Description: SANGER: Inhibition of human BL-41 cell growth in a cell viability assay.

IMR-5 = assay: cells; settings: Homo sapiens;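 also: growth inhibition of human IMR-5 cells, read out with a cell viability assay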
Description: SANGER: Inhibition of human IMR-5 cell growth in a cell viability assay.

HLE = assay: cells; settings: Homo sapiens;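 also: growth inhibition of human HLE cells, read out by a cell viability assay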
Description: SANGER: Inhibition of human HLE cell growth in a cell viability assay.

REH = assay: cells; settings: Homo sapiens;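 also: growth inhibition of REH cells determined with a cell viability read-out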
Description: SANGER: Inhibition of human REH cell growth in a cell viability assay.

Hs-578T = assay: cells; settings: Homo sapiens
Description: SANGER: Inhibition of human Hs-578-T cell growth in a cell viability assay.

CA46 = assay: cells; settings: Homo sapiens;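 also: growth inhibition of human CA46 cells, read out by a cell viability assay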
Description: SANGER: Inhibition of human CA46 cell growth in a cell viability assay.

BT-20 = assay: cells; settings: Homo sapiens;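 also: cell viability assay measuring suppression of growth in human BT-20 cells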
Description: SANGER: Inhibition of human BT-20 cell growth in a cell viability assay.

ESS-1 = assay: cells; settings: Homo sapiens;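 also: growth inhibition of human ESS-1 cells, read out by a cell viability assay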
Description: SANGER: Inhibition of human ESS-1 cell growth in a cell viability assay.

786-0 = assay: cells; settings: Homo sapiens
Description: SANGER: Inhibition of human 786-0 cell growth in a cell viability assay.

NCI-H1436 = assay: cells; settings: Homo sapiens;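 also: growth suppression of human NCI-H1436 cells, determined with a cell viability readout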
Description: SANGER: Inhibition of human NCI-H1436 cell growth in a cell viability assay.

DMS-273 = assay: cells; settings: Homo sapiens
Description: SANGER: Inhibition of human DMS-273 cell growth in a cell viability assay.

HCC2157 = assay: cells; settings: Homo sapiens;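 also: growth inhibition of the cancer cell line, read out as cell viability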
Description: SANGER: Inhibition of human HCC2157 cell growth in a cell viability assay.

SJRH30 = assay: cells; settings: Homo sapiens;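 also: growth inhibition of human SJRH30 cells, read out with a cell viability assay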
Description: SANGER: Inhibition of human SJRH30 cell growth in a cell viability assay.

HSC-2 = assay: cells; settings: Homo sapiens;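 also: growth inhibition of human HSC-2 cells, read out by a cell viability assay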
Description: SANGER: Inhibition of human HSC-2 cell growth in a cell viability assay.

PFSK-1 = assay: cells; settings: Homo sapiens;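 also: cell viability assay measuring how strongly compounds suppress growth of human PFSK-1 cells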
Description: SANGER: Inhibition of human PFSK-1 cell growth in a cell viability assay.

UACC-812 = assay: cells; settings: Homo sapiens
Description: SANGER: Inhibition of human UACC-812 cell growth in a cell viability assay.

NCI-H28 = assay: cells; settings: Homo sapiens;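 also: growth inhibition of human NCI-H28 cells, read out as cell viability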
Description: SANGER: Inhibition of human NCI-H28 cell growth in a cell viability assay.

Raji = assay: cells; settings: Homo sapiens;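 also: cell viability assay measuring inhibition of Raji cell growth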
Description: SANGER: Inhibition of human Raji cell growth in a cell viability assay.

HSC-4 = assay: cells; settings: Homo sapiens;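 also: growth inhibition of human HSC-4 cells, read out with a cell viability assay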
Description: SANGER: Inhibition of human HSC-4 cell growth in a cell viability assay.

HMV-2 cell line = assay: cells; settings: Homo sapiens;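 also: growth inhibition of HMV-II cells, read out with a cell viability assay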
Description: SANGER: Inhibition of human HMV-II cell growth in a cell viability assay.

CAL-39 = assay: cells; settings: Homo sapiens;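 also: cell viability assay measuring growth inhibition of CAL-39 cells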
Description: SANGER: Inhibition of human CAL-39 cell growth in a cell viability assay.

A2780 = assay: cells; settings: Homo sapiens;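 also: growth inhibition of A2780 cells, read out with a cell viability assay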
Description: SANGER: Inhibition of human A2780 cell growth in a cell viability assay.

C-33-A = assay: cells; settings: Homo sapiens;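 also: cell viability assay measuring growth inhibition of C-33-A cells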
Description: SANGER: Inhibition of human C-33-A cell growth in a cell viability assay.

ACHN = assay: cells; settings: Homo sapiens;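 also: cell viability read-out used to gauge how strongly growth of human ACHN cells is suppressed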
Description: SANGER: Inhibition of human ACHN cell growth in a cell viability assay.

NCI-H2347 = assay: cells; settings: Homo sapiens;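 also: growth inhibition of the cell line, read out with a cell viability assay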
Description: SANGER: Inhibition of human NCI-H2347 cell growth in a cell viability assay.

A2058 = assay: cells; settings: Homo sapiens;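 also: reduction of A2058 cell growth, read out with a viability assay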
Description: SANGER: Inhibition of human A2058 cell growth in a cell viability assay.

MC-IXC = assay: cells; settings: Homo sapiens;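 also: growth inhibition of MC-IXC cells, read out with a cell viability assay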
Description: SANGER: Inhibition of human MC-IXC cell growth in a cell viability assay.

RL = assay: cells; settings: Homo sapiens
Description: SANGER: Inhibition of human RL cell growth in a cell viability assay.

U-118-MG = assay: cells; settings: Homo sapiens
Description: SANGER: Inhibition of human U-118-MG cell growth in a cell viability assay.

LC-1F = assay: cells; settings: Homo sapiens;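 also: growth inhibition of human LC-1F cells, read out with a cell viability assay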
Description: SANGER: Inhibition of human LC-1F cell growth in a cell viability assay.

A-427 = assay: cells; settings: Homo sapiens;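 also: growth inhibition of human A-427 cells, read out by a cell viability assay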
Description: SANGER: Inhibition of human A427 cell growth in a cell viability assay.

WM-115 = assay: cells; settings: Homo sapiens
Description: SANGER: Inhibition of human WM-115 cell growth in a cell viability assay.

HCC1599 = assay: cells; settings: Homo sapiens;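 also: growth inhibition of HCC1599 cells, read out in a cell viability assay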
Description: SANGER: Inhibition of human HCC1599 cell growth in a cell viability assay.

HCC 2998 = assay: cells; settings: Homo sapiens;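 also: growth inhibition of human HCC2998 cells, measured with a cell viability read-out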
Description: SANGER: Inhibition of human HCC2998 cell growth in a cell viability assay.

Ca9-22 = assay: cells; settings: Homo sapiens;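 also: growth inhibition of Ca9-22 cells, read out with a cell viability assay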
Description: SANGER: Inhibition of human Ca9-22 cell growth in a cell viability assay.

MRK-nu-1 = assay: cells; settings: Homo sapiens;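 also: cell viability assay measuring growth suppression of human MRK-nu-1 cells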
Description: SANGER: Inhibition of human MRK-nu-1 cell growth in a cell viability assay.

HCC38 = assay: cells; settings: Homo sapiens;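 also: cell viability assay on the human HCC38 cell line, with IC50 marking the concentration that inhibits cell growth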
Description: SANGER: Inhibition of human HCC38 cell growth in a cell viability assay.

LB647-SCLC = assay: cells; settings: Homo sapiens;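 also: cell growth inhibition, read out by a viability assay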
Description: SANGER: Inhibition of human LB647-SCLC cell growth in a cell viability assay.

YT = assay: cells; settings: Homo sapiens
Description: SANGER: Inhibition of human YT cell growth in a cell viability assay.

SiHa = assay: cells; settings: Homo sapiens;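 also: Viability-based readout of growth inhibition in SiHa cells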
Description: SANGER: Inhibition of human SiHa cell growth in a cell viability assay.

PF-382 = assay: cells; settings: Homo sapiens
Description: SANGER: Inhibition of human PF-382 cell growth in a cell viability assay.

Measured: IC50

C/C(O)=C(\C#N)C(=O)Nc1cc(Br)ccc1Br
> 16 µM: NCI-H2228 | BEN | DBTRG-05MG | UACC-893 | HCC1569 | TE-15 | NCI-H2171 | AGS | SW48 | NCI-H1703 | NCI-H2405 | NCI-H1694 | SCC-25 | SK-MEL-30 | EGI-1 | NCI-H650 | SW1990 | BC1 cell line | BOKU | BCPAP | DoTc2-4510 | NCI-H1522 | JIYOYE | BL-41 | IMR-5 | HLE | REH | Hs-578T | CA46 | BT-20 | ESS-1 | 786-0 | NCI-H1436 | DMS-273 | HCC2157 | SJRH30 | HSC-2 | PFSK-1 | UACC-812 | NCI-H28 | Raji | HSC-4 | HMV-2 cell line | CAL-39 | A2780 | C-33-A | ACHN | NCI-H2347 | A2058 | MC-IXC | RL | U-118-MG | LC-1F | A-427 | WM-115 | HCC1599 | HCC 2998 | Ca9-22 | MRK-nu-1 | HCC38 | LB647-SCLC | YT | SiHa | PF-382

CCNC(=O)c1noc(-c2cc(C(C)C)c(O)cc2O)c1-c1ccc(CN2CCOCC2)cc1 [LUMINESPIB]
0.0573 µM: HCC2157
0.148 µM: NCI-H1522
0.0171 µM: A2780
0.18 µM: EGI-1
0.0235 µM: ACHN
0.0348 µM: DMS-273
0.0449 µM: IMR-5
0.0377 µM: HCC38
0.0212 µM: NCI-H650 | DoTc2-4510
0.00449 µM: HMV-2 cell line
0.218 µM: NCI-H1436
0.0289 µM: NCI-H2405
0.0787 µM: ESS-1
0.023 µM: MRK-nu-1
0.116 µM: BEN
> 0.256 µM: NCI-H1694 | Hs-578T | BT-20 | UACC-812 | NCI-H28 | Raji | RL | LC-1F | WM-115 | SiHa
0.0296 µM: DBTRG-05MG
0.0294 µM: HCC 2998
0.0265 µM: BCPAP
0.0608 µM: HLE
0.0106 µM: NCI-H2228 | AGS
0.0403 µM: SW48
0.0151 µM: C-33-A
0.013 µM: A-427
0.0483 µM: PF-382
0.0206 µM: REH
0.00518 µM: HSC-2
0.0142 µM: CAL-39
0.00663 µM: 786-0
0.186 µM: NCI-H2171
0.096 µM: HCC1599
0.0174 µM: MC-IXC
0.0944 µM: SJRH30
0.0618 µM: NCI-H1703
0.0436 µM: SK-MEL-30
0.0293 µM: A2058
0.172 µM: HSC-4
0.0258 µM: U-118-MG
0.0337 µM: BC1 cell line
0.0134 µM: TE-15
0.136 µM: SCC-25
0.0272 µM: SW1990
0.056 µM: BL-41
0.0339 µM: JIYOYE
0.0543 µM: CA46
0.0118 µM: YT
0.028 µM: Ca9-22
0.0361 µM: HCC1569
0.103 µM: PFSK-1
0.0667 µM: BOKU
0.059 µM: UACC-893
0.0803 µM: NCI-H2347
0.24 µM: LB647-SCLC

CC(O)(CS(=O)(=O)c1ccc(F)cc1)C(=O)Nc1ccc(C#N)c(C(F)(F)F)c1 (stereo unspecified) [BICALUTAMIDE]
> 1.02 µM: NCI-H2228 | BEN | DBTRG-05MG | UACC-893 | HCC1569 | TE-15 | NCI-H2171 | AGS | SW48 | NCI-H1703 | NCI-H2405 | NCI-H1694 | SCC-25 | SK-MEL-30 | EGI-1 | NCI-H650 | SW1990 | BC1 cell line | BOKU | BCPAP | DoTc2-4510 | NCI-H1522 | JIYOYE | BL-41 | IMR-5 | HLE | REH | Hs-578T | CA46 | BT-20 | ESS-1 | 786-0 | NCI-H1436 | DMS-273 | HCC2157 | SJRH30 | HSC-2 | PFSK-1 | UACC-812 | NCI-H28 | Raji | HSC-4 | HMV-2 cell line | CAL-39 | A2780 | C-33-A | ACHN | NCI-H2347 | A2058 | MC-IXC | RL | U-118-MG | LC-1F | A-427 | WM-115 | HCC1599 | HCC 2998 | Ca9-22 | MRK-nu-1 | HCC38 | LB647-SCLC | YT | SiHa | PF-382

N#C/C(=C1/Nc2ccccc2S1)c1ccnc(NCCc2cccnc2)n1
3.08 µM: 786-0
5.97 µM: NCI-H2405
2.08 µM: DoTc2-4510
5.3 µM: HCC38
1.49 µM: DMS-273
1.96 µM: HCC1569
7.64 µM: BL-41
3.47 µM: HLE
> 8 µM: BEN | DBTRG-05MG | UACC-893 | NCI-H2171 | AGS | NCI-H1703 | NCI-H1694 | SK-MEL-30 | EGI-1 | NCI-H650 | SW1990 | BOKU | NCI-H1522 | JIYOYE | IMR-5 | REH | Hs-578T | BT-20 | NCI-H1436 | HCC2157 | SJRH30 | HSC-2 | PFSK-1 | UACC-812 | Raji | HSC-4 | CAL-39 | A2780 | NCI-H2347 | A2058 | MC-IXC | RL | U-118-MG | LC-1F | A-427 | WM-115 | HCC1599 | Ca9-22 | MRK-nu-1 | LB647-SCLC | YT | SiHa | PF-382
2.22 µM: TE-15
4.48 µM: NCI-H2228
5.45 µM: CA46
3.29 µM: NCI-H28
2.35 µM: ACHN
0.793 µM: HMV-2 cell line
2.67 µM: C-33-A
6.49 µM: ESS-1
5.38 µM: BC1 cell line
5.31 µM: SCC-25
3.17 µM: HCC 2998
4.45 µM: BCPAP
2.16 µM: SW48

Reference: ChEMBL document CHEMBL1201861, “Genomics of Drug Sensitity in Cancer screening data, Wellcome Trust Sanger Institute”
